Measured values reported in US20100292289A1 (priority 2007, published 2010).
Read-outs that look alike come from different tables or passages of the source.

Tests used:
Assay type in all cases: cell-based
GLP-1 receptor [1] = molecular target: T1, GLP-1 receptor (Homo sapiens, UniProt P43220); test: FLIPR calcium flux assay, agonist format, GLP-1; settings: Emax of reference ligand Glucagon as 100%; for % Activation Agonist GLP-1: 1 μM
Procedure: (§1) A FLIPR assay was conducted to monitor agonist and antagonist selectivity for compounds of the invention against the CBI and GLP-1 receptors. Percentage activation and percentage inhibition values were determined for each compound on each of the GPCRs listed above. Agonist selectivity was determined upon initial addition of compounds followed by 10 minute incubation at 25° C. Following compound incubation, reference agonists were added at EC80 to determine percentage inhibition.
(§2) Agonist percentage activation determinations were obtained by assaying sample compounds and referencing the Emax control for each of the GPCRs profiled. Antagonist percentage inhibition determinations were obtained by assaying sample compounds and referencing the control EC80 wells for each of the GPCRs profiled. The protocol design is as follows:
(§3) Unless specified otherwise, all sample compounds were diluted in 100% anhydrous DMSO including all serial dilutions. Occasionally sample compounds were provided in a different solvent, in this case all master stock dilutions were performed in the specified diluent. All control wells contained identical solvent final concentrations as sample compound wells.
(§4) Sample compounds were transferred from a master stock solution into a daughter plate that was used in the assay. Each sample compound was diluted into assay buffer (1×HBSS with 20 mM HEPES) at an appropriate concentration to obtain final concentrations.
(§5) All sample compounds were plated at 1 μM in duplicate for assaying against all GPCRs. Reference agonists were handled as mentioned above serving as assay control. These reference agonists were handled as described above for both EMax and EC80 control wells. Assay was read for 90 seconds using the FLIPRTETRA. (This assay run added sample compounds and reference agonist to respective rows.) At the completion of the first “Single Addition” assay run, assay plate was removed from the FLIPRTetra and placed at 25° C. for 10 minutes.
(§6) All plates were subjected to appropriate baseline corrections. Once baseline corrections were processed, maximum fluorescence values were exported and data manipulated to calculate percentage activation, percentage inhibition, Z′, EC50, and IC50. Percentage activation data was calculated using Emax as 100% control. Percentage inhibition was calculated using EC80 as 0% inhibition.

CB1 receptor [2] = molecular target: T2, CB1 receptor (Homo sapiens, UniProt P21554); test: FLIPR calcium flux assay, antagonist format, CB1; settings: reference agonist CP-55,940 at EC80 as 0% inhibition; for % Inhibition Antagonist CB1: 1 μM
T2 sequence (P21554 whole entry): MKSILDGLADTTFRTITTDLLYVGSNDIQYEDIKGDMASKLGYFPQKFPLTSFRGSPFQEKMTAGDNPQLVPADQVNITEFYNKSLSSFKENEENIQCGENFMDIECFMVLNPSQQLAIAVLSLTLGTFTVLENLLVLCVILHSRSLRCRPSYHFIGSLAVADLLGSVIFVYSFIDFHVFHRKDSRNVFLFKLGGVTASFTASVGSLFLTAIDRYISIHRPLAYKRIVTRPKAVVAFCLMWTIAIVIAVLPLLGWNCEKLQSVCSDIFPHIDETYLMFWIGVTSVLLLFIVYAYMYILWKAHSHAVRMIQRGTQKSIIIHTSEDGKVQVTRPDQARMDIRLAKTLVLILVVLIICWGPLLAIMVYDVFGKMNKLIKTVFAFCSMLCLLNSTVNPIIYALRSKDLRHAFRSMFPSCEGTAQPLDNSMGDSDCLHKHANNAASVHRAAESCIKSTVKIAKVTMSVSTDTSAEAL
Procedure: as §1, §2, §3, §4
(§7) Using the EC50 values determined previously, stimulated all pre-incubated sample compound and reference antagonist (if applicable) wells with EC80 of reference agonist. Read for 90 seconds using the FLIPRTETRA. (This assay added reference agonist to respective wells—then fluorescence measurements were collected to calculate percentage inhibition.)
as §6

GLP-1 receptor [3] = molecular target: T1, GLP-1 receptor; test: FLIPR calcium flux assay, antagonist format, GLP-1; settings: for inhibition at 1 µM: read-out: % Inhibition Antagonist GLP-1
Procedure: as §1, §2, §3, §4, §7, §6

CB1 receptor [4] = molecular target: T2, CB1 receptor; test: FLIPR calcium flux assay, agonist format, CB1; settings: Emax of reference agonist CP-55,940 as 100%; for % Activation Agonist CB1: 1 μM
Procedure: as §1, §2, §3, §4, §5, §6

[5] = 1 μM, reference ligand Glucagon at EC80 as 0% inhibition

T1 sequence (P43220 24-463): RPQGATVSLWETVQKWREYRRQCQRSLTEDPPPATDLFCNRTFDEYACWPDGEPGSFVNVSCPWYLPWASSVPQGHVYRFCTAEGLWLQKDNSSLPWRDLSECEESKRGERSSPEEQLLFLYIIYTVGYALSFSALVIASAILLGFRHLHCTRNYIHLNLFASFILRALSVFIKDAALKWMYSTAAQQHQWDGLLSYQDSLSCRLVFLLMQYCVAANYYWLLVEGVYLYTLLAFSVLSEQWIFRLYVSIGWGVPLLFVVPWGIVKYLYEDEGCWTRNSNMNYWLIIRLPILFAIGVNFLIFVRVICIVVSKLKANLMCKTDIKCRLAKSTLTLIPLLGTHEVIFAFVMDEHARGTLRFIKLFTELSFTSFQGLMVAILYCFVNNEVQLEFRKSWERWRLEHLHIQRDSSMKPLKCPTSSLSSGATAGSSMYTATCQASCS

| SMILES | activation at 1 µM (GLP-1 receptor [1]) [%] | inhibition at 1 µM (CB1 receptor [2]) [%] | inhibition at 1 µM (GLP-1 receptor [3]; [5]) [%] | activation at 1 µM (CB1 receptor [4]) [%] | % Activation Agonist GLP-1 (GLP-1 receptor [1]) [%] | % Activation Agonist CB1 (CB1 receptor [4]) [%] | % Inhibition Antagonist CB1 (CB1 receptor [2]) [%] | % Inhibition Antagonist GLP-1 (GLP-1 receptor [3]; [5]) [%] | inhibition at 1 µM (GLP-1 receptor [3]) [%] |
| --- | --- | --- | --- | --- | --- | --- | --- | --- | --- |
| O=C(c1ccccc1)c1ccc2n1CCC2C(=O)NCC[C@@H](Oc1ccc(C(F)(F)F)cc1)c1ccccc1 (some centres unmarked) [Compound 5a] | 0.4 | 48.7 | -6.3 | 0.3 | – | – | – | – | – |
| COc1ccc2c(c1)c(CC(=O)NCC[C@@H](Oc1ccc(C(F)(F)F)cc1)c1ccccc1)c(C)n2C(=O)c1ccc(Cl)cc1 [Compound 7a] | 4.2 | 46.9 | 0 | -0.5 | – | – | – | – | – |
| CN(CCC(Oc1ccc(C(F)(F)F)cc1)c1ccccc1)C(=O)C1CCn2c(C(=O)c3ccccc3)ccc21 (centres unmarked) [Compound 13] | 0.8 | 37.7 | -15.4 | 0.9 | – | – | – | – | – |
| C[C@H](C(=O)N(C)CCC(Oc1ccc(C(F)(F)F)cc1)c1ccccc1)c1cccc(C(=O)c2ccccc2)c1 (some centres unmarked) [Compound 14] | -2.4 | 56.6 | 17.2 | 1.2 | – | – | – | – | – |
| COc1ccc2c(c1)c(CC(=O)N(C)CCC(Oc1ccc(C(F)(F)F)cc1)c1ccccc1)c(C)n2C(=O)c1ccc(Cl)cc1 (centres unmarked) [Compound 15] | -0.2 | 34.4 | -5.1 | 0 | – | – | – | – | – |
| CN(Cc1ccccc1)C1CCN(C(C(=O)NCC[C@@H](Oc2ccc(C(F)(F)F)cc2)c2ccccc2)c2nc(-c3ccc(C(F)(F)F)cc3)no2)CC1 (some centres unmarked) [Compound 16] | 21.3 | – | – | 6.9 | – | – | – | – | – |
| C[C@H]1CCN(C(C(=O)NCC[C@@H](Oc2ccc(C(F)(F)F)cc2)c2ccccc2)c2nc(-c3ccc(C(F)(F)F)cc3)no2)C[C@@H]1COc1ccc(C(F)(F)F)cc1 (some centres unmarked) [Compound 17] | – | – | – | – | 9.4 | 8.6 | – | – | – |
| C[C@@H]1CCN(C(C(=O)NCC[C@@H](Oc2ccc(C(F)(F)F)cc2)c2ccccc2)c2nc(-c3ccc(C(F)(F)F)cc3)no2)C[C@@H]1COc1ccc(C(F)(F)F)cc1 (some centres unmarked) [Compound 18] | – | – | – | – | 20.6 | 6.2 | – | – | – |
| O=C(NCC[C@@H](Oc1ccc(C(F)(F)F)cc1)c1ccccc1)C(c1nc(-c2ccc(C(F)(F)F)cc2)no1)N1CCC[C@@H](COc2ccc(C(F)(F)F)cc2)C1 (some centres unmarked) [Compound 19] | – | – | – | – | 6.5 | 0.5 | – | – | – |
| C[C@H]1CCN(C(C(=O)NCCOc2ccc(C(F)(F)F)cc2)c2nc(-c3ccc(C(F)(F)F)cc3)no2)C[C@@H]1COc1ccc(C(F)(F)F)cc1 (some centres unmarked) [Compound 20] | – | – | – | – | 7.5 | 1.9 | 14.5 | −14.4 | – |
| O=C(Cc1nc(-c2ccc(C(F)(F)F)cc2)no1)NCC[C@@H](Oc1ccc(C(F)(F)F)cc1)c1ccccc1 [Compound 23] | – | – | – | – | 11.9 | 7.8 | – | – | – |
| CN(Cc1ccccc1)C1CCN(C(C(=O)NCCOc2ccc(C(F)(F)F)cc2)c2nc(-c3ccc(C(F)(F)F)cc3)no2)CC1 (centres unmarked) [Compound 24] | – | – | – | – | 5.9 | 1.6 | 4.6 | −1.6 | – |
| CC(C(=O)N(C)CC[C@@H](Oc1ccc(C(F)(F)F)cc1)c1ccccc1)c1ccc(CN(C)C)cc1 (some centres unmarked) [Compound 25a] | -2.7 | 79.9 | 5.7 | 0.8 | – | – | – | – | – |
| CC(C(=O)N(C)CC[C@H](Oc1ccc(C(F)(F)F)cc1)c1ccccc1)c1ccc(CN(C)C)cc1 (some centres unmarked) [Compound 25b] | -3.3 | 15.2 | 6.9 | 0.2 | – | – | – | – | – |
| CC(C(=O)N(C)CC[C@H](Oc1ccc(C(F)(F)F)cc1)c1ccccc1)c1ccc(CC2CCCC2=O)cc1 (some centres unmarked) [Compound 29b] | – | – | – | – | 6.2 | −0.2 | 31.2 | 0.0 | – |
| CC(C)Cc1ccc(C2(C(=O)N(C)CC[C@@H](Oc3ccc(C(F)(F)F)cc3)c3ccccc3)CCC2)cc1 [Compound 30a] | – | – | – | – | −3.7 | 1.0 | 84.6 | 7.5 | – |

| SMILES | activation at 1 µM (GLP-1 receptor [1]) [%] | inhibition at 1 µM (CB1 receptor [2]) [%] | inhibition at 1 µM (GLP-1 receptor [3]; [5]) [%] | activation at 1 µM (CB1 receptor [4]) [%] | % Activation Agonist GLP-1 (GLP-1 receptor [1]) [%] | % Activation Agonist CB1 (CB1 receptor [4]) [%] | % Inhibition Antagonist CB1 (CB1 receptor [2]) [%] | % Inhibition Antagonist GLP-1 (GLP-1 receptor [3]; [5]) [%] | inhibition at 1 µM (GLP-1 receptor [3]) [%] |
| --- | --- | --- | --- | --- | --- | --- | --- | --- | --- |
| CC(C)Cc1ccc(C2(C(=O)N(C)CC[C@H](Oc3ccc(C(F)(F)F)cc3)c3ccccc3)CCC2)cc1 [Compound 30b] | – | – | – | – | −3.4 | −0.8 | 48.3 | 9.7 | – |
| CC(C)Cc1ccc(CC(=O)N(C)CC[C@@H](Oc2ccc(C(F)(F)F)cc2)c2ccccc2)cc1 [Compound 32a] | 2.9 | 90.7 | 0.8 | 4.5 | – | – | – | – | – |
| CC(C)Cc1ccc(CC(=O)N(C)CC[C@H](Oc2ccc(C(F)(F)F)cc2)c2ccccc2)cc1 [Compound 32b] | – | – | – | – | −1.8 | 2.1 | 23.0 | −0.8 | – |
| CC(C(=O)N(C)CC[C@@H](Oc1ccc(C(F)(F)F)cc1)c1ccccc1)c1ccc(C(F)(F)F)cc1 (some centres unmarked) [Compound 33a] | – | – | – | – | 0.9 | −0.3 | 90.7 | 11.4 | – |
| CC(C(=O)N(C)CC[C@H](Oc1ccc(C(F)(F)F)cc1)c1ccccc1)c1ccc(C(F)(F)F)cc1 (some centres unmarked) [Compound 33b] | 17.6 | 45.8 | ~0 | 0.5 | – | – | – | – | – |
| C[C@@H](C(=O)N(C)CC[C@@H](Oc1ccc(C(F)(F)F)cc1)c1ccccc1)c1ccc(C(F)(F)F)cc1 [Compound 33c] | 0.8 | 80.1 | 0.2 | -0.9 | – | – | – | – | – |
| C[C@H](C(=O)N(C)CC[C@@H](Oc1ccc(C(F)(F)F)cc1)c1ccccc1)c1ccc(C(F)(F)F)cc1 [Compound 33d] | 0.6 | 82.8 | 11.4 | 1.4 | – | – | – | – | – |
| C[C@@H](C(=O)N(C)CC[C@H](Oc1ccc(C(F)(F)F)cc1)c1ccccc1)c1ccc(C(F)(F)F)cc1 [Compound 33e] | 0.4 | 0.8 | 9.4 | 1.7 | – | – | – | – | – |
| C[C@H](C(=O)N(C)CC[C@H](Oc1ccc(C(F)(F)F)cc1)c1ccccc1)c1ccc(C(F)(F)F)cc1 [Compound 33f] | -3.5 | 34 | 11.5 | -0.5 | – | – | – | – | – |
| CCc1ccc(C(C)C(=O)N(C)CC[C@@H](Oc2ccc(C(F)(F)F)cc2)c2ccccc2)cc1 (some centres unmarked) [Compound 34a] | -0.8 | 99 | -1 | -2.9 | – | – | – | – | – |
| CCc1ccc(C(C)C(=O)N(C)CC[C@H](Oc2ccc(C(F)(F)F)cc2)c2ccccc2)cc1 (some centres unmarked) [Compound 34b] | 0.2 | 76.4 | 1.6 | -1.9 | – | – | – | – | – |
| CC(C)Cc1cccc(C(C)C(=O)N(C)CC[C@@H](Oc2ccc(C(F)(F)F)cc2)c2ccccc2)c1 (some centres unmarked) [Compound 35a] | -0.9 | 80.5 | 7.7 | -1 | – | – | – | – | – |
| CC(C)Cc1cccc(C(C)C(=O)N(C)CC[C@H](Oc2ccc(C(F)(F)F)cc2)c2ccccc2)c1 (some centres unmarked) [Compound 35b] | 3.8 | 38.9 | 0.3 | 1.1 | – | – | – | – | – |
| CC(C)Cc1ccc(C2(C(=O)N(C)CC[C@@H](Oc3ccc(C(F)(F)F)cc3)c3ccccc3)CC2)cc1 [Compound 36a] | 4.4 | 59.9 | 11 | -1.2 | – | – | – | – | – |
| CC(C)Cc1ccc(C2(C(=O)N(C)CC[C@H](Oc3ccc(C(F)(F)F)cc3)c3ccccc3)CC2)cc1 [Compound 36b] | 0.5 | 15.5 | 5.5 | -1.1 | – | – | – | – | – |
| CC(C)Cc1ccccc1C(C)C(=O)N(C)CC[C@@H](Oc1ccc(C(F)(F)F)cc1)c1ccccc1 (some centres unmarked) [Compound 38a] | – | 98.5 | – | – | – | – | – | – | -20.2 |
